Measurements published in ChEMBL document CHEMBL1221340, “Lanostane triterpenes from Ganoderma lucidum suppress the adipogenesis in 3T3-L1 cells through down-regulation of SREBP-1c” (Bioorg Med Chem Lett, 2010).
Activity calls are given as the source filed them. The calls are words filed in the database; no cut-off is given here.

What was measured:
[1] = test system: 3T3-L1; experiment: Cytotoxicity against mouse 3T3L1 cells assessed as cell viability at up to 40 ug/ml; type: cell-based
[2] = test system: 3T3-L1; experiment: Inhibition of adipogenesis in mouse 3T3L1 cells assessed as reduction of triglyceride accumulation at 80 ug/ml after 8 days; type: functional
[3] = test system: 3T3-L1; experiment: Inhibition of adipogenesis in mouse 3T3L1 cells assessed as reduction of GPDH activity at 80 ug/ml after 8 days; type: functional
[4] = test system: 3T3-L1; experiment: Inhibition of adipogenesis in mouse 3T3L1 cells assessed as reduction of lipid accumulation at 40 ug/ml after 8 days relative to control; type: functional; conditions: 3T3-L1, 192 h
[5] = test system: 3T3-L1; experiment: Inhibition of adipogenesis in mouse 3T3L1 cells assessed as reduction of SREBP1c mRNA expression at 80 ug/ml after 8 days by RT-PCR analysis relative to control; type: functional; conditions: 3T3-L1, 192 h
[6] = test system: 3T3-L1; experiment: Inhibition of adipogenesis in mouse 3T3L1 cells assessed as reduction of SREBP1c protein expression at 80 ug/ml after 8 days by Western blotting analysis; type: functional, cell-based
[7] = test system: 3T3-L1; experiment: Inhibition of adipogenesis in mouse 3T3L1 cells assessed as reduction of FAS mRNA expression at 80 ug/ml after 8 days by RT-PCR analysis; type: functional, cell-based
[8] = test system: 3T3-L1; experiment: Inhibition of adipogenesis in mouse 3T3L1 cells assessed as reduction of ACC mRNA expression at 80 ug/ml after 8 days by RT-PCR analysis; type: functional, cell-based
[9] = test system: 3T3-L1; experiment: Cytotoxicity against mouse 3T3L1 cells assessed as cell viability at up to 80 ug/ml; type: cell-based

Compound	Activity [1]	inhibition [2]	inhibition [3]	also measured
COC(=O)CC[C@@H](C)[C@H]1CC(=O)[C@@]2(C)C3=C(C(=O)[C@@H](OC(C)=O)[C@]12C)[C@@]1(C)CC[C@H](O)C(C)(C)[C@@H]1C[C@@H]3O [METHYL LUCIDENATE P]	Non-toxic			
CC(CC(=O)C[C@@H](C)[C@H]1C[C@H](O)[C@@]2(C)C3=C(C(=O)C[C@]12C)[C@@]1(C)CCC(=O)C(C)(C)[C@@H]1CC3)C(=O)O (stereo partly specified) [GANOLUCIDIC ACID A]	Non-toxic			
CC(CC(=O)C[C@@H](C)[C@H]1CC(=O)[C@@]2(C)C3=C(C(=O)C[C@]12C)[C@@]1(C)CC[C@H](O)C(C)(C)[C@@H]1C[C@@H]3O)C(=O)O (stereo partly specified) [GANODERIC ACID B]	Non-toxic	Active	Active	
CCCCOC(=O)CC[C@@H](C)[C@H]1CC(=O)[C@@]2(C)C3=C(C(=O)C[C@]12C)[C@@]1(C)CC[C@H](O)C(C)(C)[C@@H]1C[C@@H]3O [BUTYL LUCIDENATE N]	Non-toxic	Active	Active	inhibition at 40 µg/mL [4]: 56%; inhibition at 80 µg/mL [5]: 38%; inhibition [6]: Active; inhibition [7]: Active; inhibition [8]: Active
COC(=O)C(C)CC(=O)C[C@@H](C)[C@H]1CC(=O)[C@@]2(C)C3=C(C(=O)C[C@]12C)[C@@]1(C)CC[C@H](O)C(C)(C)[C@@H]1C[C@@H]3O (stereo partly specified) [METHYL GANODERATE B]	Non-toxic	Active	Active	
CCCCOC(=O)[C@H](C)CC(=O)C[C@@H](C)[C@H]1CC(=O)[C@@]2(C)C3=C(C(=O)C[C@]12C)[C@@]1(C)CC[C@H](O)C(C)(C)[C@@H]1C[C@@H]3O [BUTYL GANODERATE B]	Non-toxic	Active	Active	inhibition at 40 µg/mL [4]: 41%
CCCCOC(=O)CC[C@@H](C)[C@H]1CC(=O)[C@@]2(C)C3=C(C(=O)C[C@]12C)[C@@]1(C)CCC(=O)C(C)(C)[C@@H]1C[C@@H]3O [BUTYL LUCIDENATE A]	Non-toxic			inhibition at 40 µg/mL [4]: 45%
COC(=O)C(C)CC(=O)C[C@@H](C)[C@H]1CC(=O)[C@@]2(C)C3=C(C(=O)C[C@]12C)[C@@]1(C)CCC(=O)C(C)(C)[C@@H]1C[C@@H]3O (stereo partly specified) [METHYL GANODERATE D]	Non-toxic			
CCCCOC(=O)C(C)CC(=O)C[C@@H](C)[C@H]1C[C@H](O)[C@@]2(C)C3=C(C(=O)C[C@]12C)[C@@]1(C)CCC(=O)C(C)(C)[C@@H]1C[C@@H]3O (stereo partly specified) [BUTYL GANODERATE A]	Non-toxic	Active	Active	inhibition at 40 µg/mL [4]: 48%; Activity [9]: Non-toxic; inhibition at 80 µg/mL [5]: 26%; inhibition [6]: Active; inhibition [7]: Active; inhibition [8]: Active
C[C@H](CCC(=O)O)[C@H]1CC(=O)[C@@]2(C)C3=C(C(=O)C[C@]12C)[C@@]1(C)CC[C@H](O)C(C)(C)[C@@H]1C[C@@H]3O [LUCIDENIC ACID N]	Non-toxic	Active	Active	
COC(=O)C(C)CC(=O)C[C@@H](C)[C@H]1CC(=O)[C@@]2(C)C3=C(C(=O)[C@@H](OC(C)=O)[C@]12C)[C@@]1(C)CC[C@H](O)C(C)(C)[C@@H]1CC3=O (stereo partly specified) [METHYL GANODERATE H]	Non-toxic			
C[C@H](CC(=O)C[C@@H](C)[C@H]1CC(=O)[C@@]2(C)C3=C(C(=O)C[C@]12C)[C@@]1(C)CCC(=O)C(C)(C)[C@@H]1CC3=O)C(=O)O [GANODERIC ACID E]	Non-toxic			
COC(=O)CC[C@@H](C)[C@H]1CC(=O)[C@@]2(C)C3=C(C(=O)[C@@H](OC(C)=O)[C@]12C)[C@@]1(C)CC[C@H](O)C(C)(C)[C@@H]1CC3=O [METHYL LUCIDENATE E2]	Non-toxic			
COC(=O)[C@H](C)CC(=O)C[C@@H](C)[C@H]1C[C@H](O)[C@@]2(C)C3=C(C(=O)C[C@]12C)[C@@]1(C)CCC(=O)C(C)(C)[C@@H]1C[C@@H]3O	Non-toxic			Activity [9]: Non-toxic
COC(=O)CC[C@@H](C)[C@H]1CC(=O)[C@@]2(C)C3=C(C(=O)C[C@]12C)[C@@]1(C)CCC(=O)C(C)(C)[C@@H]1CC3=O [METHYL LUCIDENATE F]	Non-toxic			
COC(=O)CC[C@@H](C)[C@H]1CC(=O)[C@@]2(C)C3=C(C(=O)C[C@]12C)[C@@]1(C)CCC(=O)C(C)(C)[C@@H]1C[C@@H]3O [METHYL LUCIDENATE A]	Non-toxic			
C[C@H](CC(=O)C[C@@H](C)[C@H]1C[C@H](O)[C@@]2(C)C3=C(C(=O)C[C@]12C)[C@@]1(C)CCC(=O)C(C)(C)[C@@H]1C[C@@H]3O)C(=O)O [GANODERIC ACID A]	Non-toxic			Activity [9]: Non-toxic; inhibition at 80 µg/mL ([2]; 3T3-L1, 192 h): 36%; inhibition at 80 µg/mL ([3]; 3T3-L1, 192 h): 48%
